Measurements reported in patent US10086090B2, “Indocyanine compound, synthesis method and purification method thereof, diagnostic composition using the indocyanine compound, and device for measuring biokinetics and device for visualizing circulation using the diagnostic composition” (NATIONAL UNIVERSITY CORPORATION MIE UNIVERSITY, priority 2010, dated 2018).

Legend:
[1] = Luminance of dorsalis pedis in λ-carrageenin edema rats (acute inflammation experiment); type: in vivo, rat
Procedure: Rats (male, Wister rat) which were 10-week old and about 350 g were selected as a test animal (n=4). The rat was generally anesthetized with isoflurane, and 0.1 mL of 0.5% […] was injected to a left posterior footpad using a 26 G needle, thus resulting quick generation of edema on the foot. After 15 minutes, a volume of the left foot of the rat was measured using a rat footpad volume-measuring device (MK-101 CMP PLETHYSMOMETER manufactured by Muromachi Kikai Co., Ltd.).
After that, the isoflurane was off and the emergence of the rat was confirmed. After Von Frey test was performed, the rat was generally anesthetized with isoflurane again. […]
A moiety (ROI) to be measured by the PDE camera was set at a central part of the dorsalis pedis and light was turned off. […] After that, luminance was measured for one minute at 5 minute-intervals and the measurement was continued until 120 minutes from the infusion. […]
After 7 days, a Von Frey test was performed and then the rat was quickly generally anesthetized with isoflurane, and the volume of the left foot of the rat was measured by using the rat footpad volume-measuring device. […] After that, luminance was measured for one minute at 5 minute-intervals and the measurement was continued until 120 minutes from the infusion. […]

[2] = Fluorescence in blood (surface fluorescence spectrum); conditions: 100 μM in blood (human), 25° C., 760 nm excitation
Procedure: The fluorescence of ICG and the cyclodextrin-bonded indocyanine compounds of the present invention (the chemical formulae 16, 20, 21, and 23 to 25) in blood was studied. ICG and the cyclodextrin-bonded indocyanine compounds of the present invention (the chemical formulae 16, 20, 21, and 23 to 25) were respectively dissolved in blood (human) in a concentration of 100 μM. The resulting blood was put in a triangular quartz cell at 25° C., which was excited with 760 nm excitation light (bandpass: 10 nm), and a surface fluorescence spectrum (bandpass: 10 nm) was measured. […] The cyclodextrin-bonded indocyanine compounds of the present invention, in particular, the compounds represented by the chemical formula 16 and the chemical formula 20 had respectively fluorescence intensities of 270 (arbitrary unit) and 190 (arbitrary unit), which were 4.7-fold and 3.3-fold of that of ICG. It could be considered that this is caused because the emission of light from the cyclodextrin-bonded indocyanine compound of the present invention was not hindered in the living body.

[3] = in DMSO, at 25° C.; cited from earlier work
[4] = Ischemia model of lower limbs (ligation of right femoral artery); type: in vivo; conditions: rat
Source text: As apparent from the image view 12, the state in which the fluorescence was emitted in accordance with the blood flow was clear in the dorsal region of foot.

[5] = cited from earlier work
[6] = Observation at blood vessel level (cremaster skin flap); type: in vivo; conditions: rat, exposed blood vessel
Procedure: ICG or TK1 was administered in a state in which a blood vessel of a rat was directly exposed and observed by methods disclosed in Non Patent Documents 7 and 8 (FIG. 15), and a state of a cremaster skin flap after the exposure is shown in FIG. 16. ICG or TK1 was administered in the state in which the blood vessel was exposed, and the observation was performed. As a result, it was observed that ICG was unevenly distributed in the blood vessel, compared to TK1. […] In order to more precisely study it, photomicrographs of the blood vessel after the administration are shown in FIG. 17 (ICG) and FIG. 18 (TK1).

[7] = Observation of distribution in rat body (caudate vein administration, PDE camera); type: in vivo
Procedure: Left is a monochrome image through visible light, and right is a fluorescence image.
After Wistar male rat (9-week old, a body weight of 350 g) was ether-anesthetized, 0.1 mL of Nembutal was intraperitoneally administered using a 26 G needle to perform the anesthesia. A base of the rat's tail was wrapped tightly with a rubber band to prevent the flow of blood, and the caudate vein was secured with a 24 G Therflow needle and a peripheral line were secured by inserting a three-way stopcock and an extension tube. The rat was fixed on a flat stand in a supine position (FIG. 8). A PDE camera unit manufactured by Hamamatsu Photonics K.K. was set at exactly 16 cm from the body of the rat. When the whole body was extensively photographed, the distance was 20 cm. The observation range was an about range shown by black dots in FIG. 8. After that, ICG, TK1 or TK2 was administered in a concentration of 1 mM from the peripheral line secured. The administration amount was 0.1 mL. After 20 minutes from the administration, the fluorescence state of the abdominal cavity which was opened is shown in FIG. 9, and the fluorescence state (images at the maximum luminance) of the dorsal region of foot was shown in FIG. 12.
In addition, a time reaching the maximum fluorescence intensity value (Imax), Imax value and a time at which the value reached a half of the Imax value (t1/2) are shown in Table 1.

[8] = Fluorescence in aqueous solution; type: physicochemical; conditions: 0.1 μM aqueous solution, 25° C., 720 nm excitation; relative to ICG 0.13 in DMSO
Procedure: The fluorescence of ICG and the cyclodextrin-bonded indocyanine compounds of the present invention (the chemical formulae 16, 20, 21, and 23 to 25) in an aqueous solution was studied. A 0.1 μM aqueous solution including ICG or each of the cyclodextrin-bonded indocyanine compounds of the present invention (the chemical formulae 16, 20, 21, and 23 to 25) was put in a 1 cm square quartz cell at 25° C., which was excited with 720 nm excitation light (bandpass: 10 nm), and a fluorescence spectrum (bandpass: 10 nm) was measured. A fluorescence efficiency was calculated based on a fluorescence efficiency of ICG, 0.13 (in DMSO, at 25° C.). […] The fluorescence quantum efficiencies thereof were respectively 2.6-fold and 2-fold of that of ICG.

[9] = Molecule association in aqueous solution (optical absorption spectrum); type: physicochemical; conditions: 0.01 mM to 0.1 mM aqueous solutions, 25° C., absorption 600 nm to 1000 nm
Procedure: The molecule association of ICG and the cyclodextrin-bonded indocyanine compounds of the present invention (the chemical formulae 16, 20, 21, and 23 to 25) in an aqueous solution was studied. Each of 0.01 mM, 0.025 mM, 0.05 mM, and 0.1 mM aqueous solutions including ICG or the cyclodextrin-bonded indocyanine compound of the present invention (each chemical formula 16, 20, 21, and 23 to 25) was prepared, it was put in a quartz cell having a length of an optical path of 1 mm, and an optical absorption spectrum at 600 nm to 1000 nm was measured at 25° C.

[10] = Solubility tests in water or physiological saline; type: physicochemical; conditions: powder
Procedure: Solubility tests of ICG and the cyclodextrin-bonded indocyanine compounds of the present invention (the chemical formulae 16, 20, 21, and 23 to 25) in water or physiological saline were performed.

[11] = rat dorsal region of foot, 1 mM 0.1 mL caudate vein

time for luminance in ROI to decrease to the base line ([1]; rat dorsalis pedis, 0.1 mL caudate vein): about 10 minutes | organ of main accumulation ([7]; Wistar rat, 1 mM 0.1 mL caudate vein, 20 minutes after administration, abdominal cavity opened): mainly accumulated in the liver | half-life ([7]; male, Wistar, intravenous, 0.1 mL of 1 mM solution, rat dorsal region of foot, 1 mM 0.1 mL caudate vein, read-out: t1/2 (time at which the value reached a half of the Imax value)): 2.3 min | time after administration until fluorescence intensity was reduced to about initial value ([7]; rat dorsal region of foot): less than 10 minutes | Imax* (maximum fluorescence intensity value) [7, 11]: 124 | Time for Imax (time reaching the maximum fluorescence intensity value) [7, 11]: 0.5 min | fluorescence quantum efficiency [8]: 0.021 | molecule association called H-aggregation [9]: occurred
SMILES: CC1(C)C(/C=C/C=C/C=C/C=C2\N(CCCCS(=O)(=O)O)c3ccc4ccccc4c3C2(C)C)=[N+](CCCCS(=O)(=O)[O-])c2ccc3ccccc3c21 [ICG, indocyanine green]
luminance change of dorsalis pedis, λ-carrageenin group versus control ([1]; rat, dye infused after λ-carrageenin injection, interstitial tissue phase): the difference in the luminance was not observed | fluorescence intensity at the maximum fluorescence wavelength [2]: 58 arbitrary unit | fluorescence efficiency (reference value) [3]: 0.13 | fluorescence in the ischemia area [4]: the fluorescence was not observed in the ischemia area | organ of accumulation (as already known) [5]: highly accumulated in liver | transfer from the blood vessel into the interstitial tissue fluid [6]: hardly transferred from the blood vessel into the interstitial tissue fluid | dissolving in water or physiological saline (need for vibration-stirring) [10]: About one minute violent vibration-stirring was necessary
